The subject of the assay is HL-60 cells. Kind of assay: Competitive binding / cell labelling by mass cytometry (CyTOF) in HL-60 cells. It is filed as cell-based. The protocol:
To determine if cellular labelling with 1 was dependent on the presence of Top2-DNA binding sites a competitive binding MC experiment was carried out using Teniposide. HL-60 cells were treated with teniposide (10 μM) for two hours to saturate intracellular Top2-DNA ternary complexes with an unlabelled ligand, next 1 (2 or 10 μM) was introduced into the cell media and the suspension was gently mixed. After two hours, cells were harvested and washed three times with PBS. Cells were then fixed and permeabilized, followed by DNA staining with Ir-intercalator. Cell pellets were analyzed by MC for ^130Te content (FIG. 6).
Additionally, co-incubation experiments were conducted where HL-60 cells were treated with a cocktail of 1 (2 μM) and either 2, 10, or 20 μM teniposide (FIG. 6B). […] Without wishing to be bound by theory, it is hypothesized that the lack of competitive labelling observed in these experiments may be due to a combination of inhibition of Top2 and a considerable degree of non-specific binding with other cellular components. Several reports have documented the non-specific accumulation of etoposide and teniposide via oxidation catalyzed by cytochrome P450-dependent monooxygenases, peroxidases and tyrosinase enzymes. […] It is also plausible these reactive species modify other intracellular proteins, thus contributing to drug accumulation inside cells, but in a promiscuous and irreversible manner. […] In this case, the non-specific binding may dominate the target binding of teniposide, and likely its analogue Te-teniposide 1.
CYTOF® labelling: For pre-saturation experiment, 3×10^6 HL-60 cells (5×10^5 cells/mL) were incubated with appropriate teniposide concentration for 2 hours at 37° C. in a humidified atmosphere of 5% CO2 in air. Compound 1 was pipetted into the cell suspension and gently mixed. Cells were further incubated for 2 hours and then centrifuged for 6 min at 300×g, and the media was aspirated. For controls, HL-60 cells were treated with teniposide or compound 1 for 4 hours consecutively. […] Samples were then injected into the CYTOF® Helios™ and analyzed.

SMILES strings stand for the structures.

Consider `COc1cc([C@@H]2c3cc4c(cc3[C@@H](OC3OC5COC(c6ccc[te]6)OC5C(O)C3O)[C@H]3COC(=O)C23)OCO4)cc(OC)c1O` (stereo partly drawn) [Compound 1, Tellurium-labelled teniposide], for which, where the note is “1 (2 μM) with 2, 10 or 20 μM teniposide”, the “competition for Top2 in co-incubation” value is “no competition”. In addition, the “cell labelling (^130Te) by MC” value (2 and 10 μM) was “readily detected”. For the same molecule, under “teniposide 10 μM for two hours, then 1 at 2 or 10 μM for two hours”, the “reduction of ^130Te signal in cells pretreated with unlabeled teniposide” value is reported as “not observed”.

The values are drawn from patent US20250298027A1, “METHOD OF EVALUATING SMALL MOLECULE DISTRIBUTION USING TELLUROPHENE ANALOGUES” (THE GOVERNING COUNCIL OF THE UNIVERSITY OF TORONTO, priority 2022, published 2025).
